# Data published in patent US20070031480A1, “Enhanced delivery of sphingolipids” (priority 2003, published 2007).
# pIC50: −log10 of the molar value.
# Assays:
# [1] = system: MDA435/LCC6 wild-type and MDR-1 gene transfected MDA435/LCC6MDR1 breast cancer cells; experiment: MTT cytotoxicity assay of free ceramides, 72 hours; assay type: cell-based, human; settings: free ceramide, wild-type and MDR1 MDA435/LCC6 cells, not separated
# Protocol: (§1) Human estrogen receptor negative MDA435/LCC6 wild-type and MDR-1 gene transfected MDA435/LCC6^MDR1 multidrug resistant breast cancer cell lines were obtained from Dr. Robert Clark, Georgetown University, Washington, D.C. J774 murine macrophage cells were obtained from ATCC (Rockville, Md.). All cells were grown as adherent monolayer cultures in 25-cm^2 Falcon flasks in DMEM supplemented with 10% fetal bovine serum and 1% L-glutamine. Cells were maintained at 37° C. in humidified air with 5% CO2. Cells were sub-cultured weekly using 0.25% trypsin with 1 mM EDTA (MDA435/LCC6) or gentle cell scraping (J774).
# Cell suspensions were diluted 1:1 with trypan blue, counted with a hemocytometer and seeded into 96-well microtitre plates at […] in 0.2 ml complete medium. The perimeter wells were not used and contained 0.2 ml sterile water. […] After 72 hours the cell viability was assessed using a conventional 3-(4,5-dimethylthiazol-2-yl)-2,5-diphenyl tetrazolium bromide (MTT) dye reduction assay. […] The formazan dye was measured spectrophotometrically using a Dynex plate reader (570 nm). […] The cytotoxic effect of each treatment was expressed as percent cell viability relative to untreated control cells (% control) and is defined as: [(Abs570 treated cells)/( Abs570 control cells)]×100. […]
# [2] = system: J774 murine macrophage cells; experiment: MTT cytotoxicity assay of free ceramide and liposomes, 72 hours; assay type: cell-based; settings: liposome concentration corrected for ceramide content
# Protocol: as §1
# Cell suspensions were diluted 1:1 with trypan blue, counted with a hemocytometer and seeded into 96-well microtitre plates at […] in 0.2 ml complete medium. […] After 72 hours the cell viability was assessed using a conventional 3-(4,5-dimethylthiazol-2-yl)-2,5-diphenyl tetrazolium bromide (MTT) dye reduction assay. […] The formazan dye was measured spectrophotometrically using a Dynex plate reader (570 nm). […] The cytotoxic effect of each treatment was expressed as percent cell viability relative to untreated control cells (% control) and is defined as: [(Abs570 treated cells)/( Abs570 control cells)]×100.
# The inventors next determined whether the stable formulation of C16-ceramide into CHEMS liposomes translated into enhanced cytotoxicity in vitro. […]
SMILES,pIC50 [1],pIC50 [2]
CCCCCCCCCCCCC/C=C/[C@@H](O)[C@H](CO)NC(=O)CCCCCCCCC [C10-ceramide],~4.35,–
CCCCCCCCCCCCC/C=C/[C@@H](O)[C@H](CO)NC(=O)CCCCC [C6-ceramide],–,4.84
CCCCCCCCCCCCC/C=C/[C@@H](O)[C@H](CO)NC(=O)CCCCCCCCCCCCCCC [C16-ceramide],–,< 4.00
